Assay results published in patent US20190016689A1, “NOVEL FLUORINATED QUINAZOLINE DERIVATIVES AS EGFR INHIBITORS” (TRILLIUM THERAPEUTICS INC., priority 2016, published 2019).

Experiments:
EGFR (L858R, T790M) = EGFR (L858R, T790M) (Homo sapiens, UniProt P00533, L858R/T790M); assay: Kinase assays, selectivity panel (qPCR); conditions: read-out: % Control @ 300 nM
SW-620 = assay: NCI screening panel (SRB); type: cell-based; conditions: Homo sapiens, SW-620 (Colon), 48 h; for CC50: read-out: LC50 (the source's name)
ERBB2 = ERBB2 (Homo sapiens, UniProt P04626); assay: Kinase assays, selectivity panel (qPCR); conditions: read-out: % Control @ 300 nM
BLK (B-lymphoid TK) = BLK (B-lymphoid TK) (Homo sapiens, UniProt P51451); assay: Kinase assays, selectivity panel (qPCR); conditions: read-out: % Control @ 300 nM
U251 = assay: NCI screening panel (SRB); type: cell-based; conditions: Homo sapiens, U-251, U251 (CNS), 48 h; for CC50: read-out: LC50 (the source's name)
EGFR (S752-I759del) = EGFR (S752-I759del) (Homo sapiens, UniProt P00533, DEL752-759); assay: Kinase assays, selectivity panel (qPCR); conditions: read-out: % Control @ 300 nM
EGFR (S752-I759del), sequence (P00533 with tags, fused parts or gaps DEL752-759): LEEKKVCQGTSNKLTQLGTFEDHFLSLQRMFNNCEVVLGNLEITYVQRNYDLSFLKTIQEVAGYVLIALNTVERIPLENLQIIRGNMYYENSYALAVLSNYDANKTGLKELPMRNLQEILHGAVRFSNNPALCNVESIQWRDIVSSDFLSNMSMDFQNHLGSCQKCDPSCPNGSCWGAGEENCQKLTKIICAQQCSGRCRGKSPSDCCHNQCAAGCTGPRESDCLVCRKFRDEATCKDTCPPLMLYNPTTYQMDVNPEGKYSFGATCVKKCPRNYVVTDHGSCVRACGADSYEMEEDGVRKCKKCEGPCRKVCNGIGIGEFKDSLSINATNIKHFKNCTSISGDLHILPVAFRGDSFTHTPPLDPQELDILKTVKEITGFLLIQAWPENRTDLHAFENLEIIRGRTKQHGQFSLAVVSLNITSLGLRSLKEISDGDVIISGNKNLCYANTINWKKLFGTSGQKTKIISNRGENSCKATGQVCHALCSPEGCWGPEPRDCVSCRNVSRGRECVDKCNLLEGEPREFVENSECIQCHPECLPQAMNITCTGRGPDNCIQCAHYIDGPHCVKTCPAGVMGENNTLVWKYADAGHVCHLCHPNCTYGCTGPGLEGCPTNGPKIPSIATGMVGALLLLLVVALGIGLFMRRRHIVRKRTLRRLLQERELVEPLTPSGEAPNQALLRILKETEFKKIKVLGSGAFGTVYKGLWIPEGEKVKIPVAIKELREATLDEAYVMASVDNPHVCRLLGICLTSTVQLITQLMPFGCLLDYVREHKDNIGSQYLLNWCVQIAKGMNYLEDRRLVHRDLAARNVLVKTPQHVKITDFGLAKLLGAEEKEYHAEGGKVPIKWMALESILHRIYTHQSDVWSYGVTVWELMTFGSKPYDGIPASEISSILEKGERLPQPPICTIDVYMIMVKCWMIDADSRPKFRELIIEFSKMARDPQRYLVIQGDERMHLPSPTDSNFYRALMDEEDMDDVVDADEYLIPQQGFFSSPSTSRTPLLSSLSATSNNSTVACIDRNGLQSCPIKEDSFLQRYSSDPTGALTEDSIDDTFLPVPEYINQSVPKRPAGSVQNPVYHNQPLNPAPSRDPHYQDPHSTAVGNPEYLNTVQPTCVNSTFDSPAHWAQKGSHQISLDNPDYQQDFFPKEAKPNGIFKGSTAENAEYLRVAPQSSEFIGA

ERBB4 = ERBB4 (Homo sapiens, UniProt Q15303); assay: Kinase assays, selectivity panel (qPCR); conditions: read-out: % Control @ 300 nM
ERBB4, sequence (Q15303 26-1308): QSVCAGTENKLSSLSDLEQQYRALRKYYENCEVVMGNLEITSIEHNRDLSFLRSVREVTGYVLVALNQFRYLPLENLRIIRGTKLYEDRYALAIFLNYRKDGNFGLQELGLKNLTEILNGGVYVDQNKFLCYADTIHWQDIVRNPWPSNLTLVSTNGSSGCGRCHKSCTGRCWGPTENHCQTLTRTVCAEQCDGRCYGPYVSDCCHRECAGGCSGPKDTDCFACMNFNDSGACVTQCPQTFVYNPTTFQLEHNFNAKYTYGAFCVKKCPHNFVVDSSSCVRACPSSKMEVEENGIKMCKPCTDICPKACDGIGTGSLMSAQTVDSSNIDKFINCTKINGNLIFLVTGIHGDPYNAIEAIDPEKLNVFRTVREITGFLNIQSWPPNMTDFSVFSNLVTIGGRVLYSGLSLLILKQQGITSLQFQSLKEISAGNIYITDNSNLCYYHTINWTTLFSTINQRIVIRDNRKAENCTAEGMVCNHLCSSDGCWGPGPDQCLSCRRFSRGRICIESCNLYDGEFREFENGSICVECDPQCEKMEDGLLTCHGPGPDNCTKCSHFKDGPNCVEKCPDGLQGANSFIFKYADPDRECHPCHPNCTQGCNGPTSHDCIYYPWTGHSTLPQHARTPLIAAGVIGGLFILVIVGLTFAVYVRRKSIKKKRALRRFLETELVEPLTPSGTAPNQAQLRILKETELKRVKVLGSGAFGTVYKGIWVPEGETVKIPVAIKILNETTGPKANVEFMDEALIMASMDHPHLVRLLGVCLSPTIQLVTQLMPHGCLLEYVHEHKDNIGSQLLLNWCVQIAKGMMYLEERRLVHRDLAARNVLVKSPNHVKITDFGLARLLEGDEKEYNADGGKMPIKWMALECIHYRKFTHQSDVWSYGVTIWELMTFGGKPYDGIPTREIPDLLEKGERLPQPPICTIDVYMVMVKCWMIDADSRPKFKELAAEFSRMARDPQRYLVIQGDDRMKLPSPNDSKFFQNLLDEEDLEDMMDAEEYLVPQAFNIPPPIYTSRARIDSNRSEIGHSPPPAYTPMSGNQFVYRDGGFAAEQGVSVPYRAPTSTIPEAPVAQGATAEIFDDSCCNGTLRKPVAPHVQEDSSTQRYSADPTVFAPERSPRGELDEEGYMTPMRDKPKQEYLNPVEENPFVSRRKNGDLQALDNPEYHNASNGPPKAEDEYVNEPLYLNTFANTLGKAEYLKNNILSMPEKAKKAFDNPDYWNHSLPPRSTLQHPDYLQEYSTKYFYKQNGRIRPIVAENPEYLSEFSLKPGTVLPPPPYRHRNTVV

MALME3-M = assay: NCI screening panel (SRB); type: cell-based; conditions: Homo sapiens, Malme-3M, MALME3-M (Melanoma), 48 h; for CC50: read-out: LC50 (the source's name)
OVCAR-4 = assay: NCI screening panel (SRB); type: cell-based; conditions: Homo sapiens, OVCAR-4 (Ovarian), 48 h; for CC50: read-out: LC50 (the source's name)
HCC-2998 = assay: NCI screening panel (SRB); type: cell-based; conditions: Homo sapiens, HCC-2998 (Colon), 48 h; for CC50: read-out: LC50 (the source's name)
HS578T = assay: NCI screening panel (SRB); type: cell-based; conditions: Homo sapiens, Hs-578T, HS578T (Breast), 48 h; for CC50: read-out: LC50 (the source's name)
ACHN = assay: NCI screening panel (SRB); type: cell-based; conditions: Homo sapiens, ACHN (Renal), 48 h; for CC50: read-out: LC50 (the source's name)
OVCAR-8 = assay: NCI screening panel (SRB); type: cell-based; conditions: Homo sapiens, OVCAR-8 (Ovarian), 48 h; for CC50: read-out: LC50 (the source's name)
EGFR (L861Q) = EGFR (L861Q) (Homo sapiens, UniProt P00533, L861Q); assay: Kinase assays, selectivity panel (qPCR); conditions: read-out: % Control @ 300 nM
SR = assay: NCI screening panel (SRB); type: cell-based; conditions: Homo sapiens, SR (Leukemia), 48 h; for CC50: read-out: LC50 (the source's name)
Microsomal stability = type: in vitro ADME, mouse (CD-1, male); conditions: Mouse liver microsomes with NADPH; for Remaining Percentage (%) after 60 min: 1 μM; for half-life at 1 μM / microsomal CLint at 1 μM: male, CD-1
Description: Working stocks were initially diluted to a concentration of 40.0 μM in 0.1 M potassium phosphate buffer before addition to the reaction vials. Pooled mouse (CD-1, male) or human (50 donors) liver microsomes were utilized at a final concentration of 0.5 mg/ml. […] Reactions were carried out at 37° C. in a shaker, and the final concentration of DMSO was kept constant at 0.01%. The final volume for each reaction was 100 μL, which includes the addition of an NADPH-Regeneration solution (NRS) mix. This NRS mix is comprised of glucose 6-phosphate dehydrogenase (0.4 U/mL), NADP+(1.3 mM), MgCl2 (3.3 mM), and glucose 6-phosphate (3.3 mM) in assay mixtures. […] Samples were then centrifuged at 4,000 rpm for 10 minutes to remove debris and precipitated protein. Approximately 150 μL of supernatant was subsequently transferred to a new 96 well microplate for LC/MS analysis.
Narrow-window mass extraction LC/MS analysis was performed for all samples using a Waters Xevo quadrupole time-of-flight (QTof) mass spectrometer and an ACQUITY UPLC system, to determine relative peak areas of parent compound.

[1] = target: EGFR (L747-E749del, A750P) (Homo sapiens, UniProt P00533, A750P/DEL747-749); assay: Kinase assays, selectivity panel (qPCR); conditions: read-out: % Control @ 300 nM
EGFR (L747-E749del, A750P), sequence (P00533 with tags, fused parts or gaps DEL747-749/A750P): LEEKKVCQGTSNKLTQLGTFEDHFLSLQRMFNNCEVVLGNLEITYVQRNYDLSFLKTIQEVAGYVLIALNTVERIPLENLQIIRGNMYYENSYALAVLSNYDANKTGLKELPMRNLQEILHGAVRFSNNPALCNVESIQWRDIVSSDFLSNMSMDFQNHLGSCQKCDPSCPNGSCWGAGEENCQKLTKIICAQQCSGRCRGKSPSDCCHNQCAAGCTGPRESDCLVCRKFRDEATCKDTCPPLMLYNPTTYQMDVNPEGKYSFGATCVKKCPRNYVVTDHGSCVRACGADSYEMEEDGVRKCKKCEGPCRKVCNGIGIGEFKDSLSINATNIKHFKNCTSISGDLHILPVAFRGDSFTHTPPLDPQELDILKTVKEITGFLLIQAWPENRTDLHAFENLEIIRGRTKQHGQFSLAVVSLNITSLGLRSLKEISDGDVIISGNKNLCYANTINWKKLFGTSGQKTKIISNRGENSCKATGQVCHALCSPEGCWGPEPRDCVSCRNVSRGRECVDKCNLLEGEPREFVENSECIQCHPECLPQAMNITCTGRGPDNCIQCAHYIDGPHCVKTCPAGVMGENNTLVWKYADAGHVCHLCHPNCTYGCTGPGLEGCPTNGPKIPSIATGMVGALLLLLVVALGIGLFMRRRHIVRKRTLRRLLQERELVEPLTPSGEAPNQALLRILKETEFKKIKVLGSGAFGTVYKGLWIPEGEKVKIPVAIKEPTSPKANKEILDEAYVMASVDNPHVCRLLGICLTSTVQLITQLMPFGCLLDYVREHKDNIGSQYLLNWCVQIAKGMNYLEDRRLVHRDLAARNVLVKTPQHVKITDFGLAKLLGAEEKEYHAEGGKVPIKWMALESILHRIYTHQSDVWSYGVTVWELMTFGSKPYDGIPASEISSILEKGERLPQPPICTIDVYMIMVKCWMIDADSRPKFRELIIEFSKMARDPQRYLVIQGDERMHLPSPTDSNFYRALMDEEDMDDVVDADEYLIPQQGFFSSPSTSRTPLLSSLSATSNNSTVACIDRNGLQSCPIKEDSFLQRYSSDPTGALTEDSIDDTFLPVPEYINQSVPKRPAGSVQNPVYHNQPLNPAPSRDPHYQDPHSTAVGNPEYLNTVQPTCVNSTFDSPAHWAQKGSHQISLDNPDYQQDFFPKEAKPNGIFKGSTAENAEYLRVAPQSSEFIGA

RPMI-8226 = assay: NCI screening panel (SRB); type: cell-based; conditions: Homo sapiens, RPMI-8226 (Leukemia), 48 h; for CC50: read-out: LC50 (the source's name)
[2] = Log D determination (1-octanol/buffer); type: physicochemical
Description: Prepare the stock solutions of test compounds and control compound progesterone in DMSO at the concentration of 30 mM. If test compound could not be dissolved completely, make a 10 mM stock solution with DMSO.
Place 5 μL of stock solution (30 mM) or 15 μL of stock solution (10 mM) of each sample in order into their proper 96-well rack. […] Add one stir stick to each vial and seal using a molded PTFE/Silicone plug. […] After completion of incubation, remove the stir sticks using a big magnet. Then centrifuge the samples at 25° C. at 20,000 g for 20 minutes to separate the phases, and use pipette and syringe to remove the upper (1-octanol) and lower (buffer) phases to the empty tubes, respectively. Take aliquots of 5 μL from upper phases followed by addition of 495 μL of methanol. Vortex for 1 minute, and then take aliquots of 50 μL from the diluent followed by addition of 450 μL of methanol. And take aliquots of 50 μL from lower phases followed by addition of 450 μL of methanol. A certain proportion of ultrapure water may be used according to the peak shape. The dilution factor may be changed according to the Log D value and the LC/MS signal response.

EGFR (L858R, T790M), sequence (P00533 25-1210 T790M/L858R): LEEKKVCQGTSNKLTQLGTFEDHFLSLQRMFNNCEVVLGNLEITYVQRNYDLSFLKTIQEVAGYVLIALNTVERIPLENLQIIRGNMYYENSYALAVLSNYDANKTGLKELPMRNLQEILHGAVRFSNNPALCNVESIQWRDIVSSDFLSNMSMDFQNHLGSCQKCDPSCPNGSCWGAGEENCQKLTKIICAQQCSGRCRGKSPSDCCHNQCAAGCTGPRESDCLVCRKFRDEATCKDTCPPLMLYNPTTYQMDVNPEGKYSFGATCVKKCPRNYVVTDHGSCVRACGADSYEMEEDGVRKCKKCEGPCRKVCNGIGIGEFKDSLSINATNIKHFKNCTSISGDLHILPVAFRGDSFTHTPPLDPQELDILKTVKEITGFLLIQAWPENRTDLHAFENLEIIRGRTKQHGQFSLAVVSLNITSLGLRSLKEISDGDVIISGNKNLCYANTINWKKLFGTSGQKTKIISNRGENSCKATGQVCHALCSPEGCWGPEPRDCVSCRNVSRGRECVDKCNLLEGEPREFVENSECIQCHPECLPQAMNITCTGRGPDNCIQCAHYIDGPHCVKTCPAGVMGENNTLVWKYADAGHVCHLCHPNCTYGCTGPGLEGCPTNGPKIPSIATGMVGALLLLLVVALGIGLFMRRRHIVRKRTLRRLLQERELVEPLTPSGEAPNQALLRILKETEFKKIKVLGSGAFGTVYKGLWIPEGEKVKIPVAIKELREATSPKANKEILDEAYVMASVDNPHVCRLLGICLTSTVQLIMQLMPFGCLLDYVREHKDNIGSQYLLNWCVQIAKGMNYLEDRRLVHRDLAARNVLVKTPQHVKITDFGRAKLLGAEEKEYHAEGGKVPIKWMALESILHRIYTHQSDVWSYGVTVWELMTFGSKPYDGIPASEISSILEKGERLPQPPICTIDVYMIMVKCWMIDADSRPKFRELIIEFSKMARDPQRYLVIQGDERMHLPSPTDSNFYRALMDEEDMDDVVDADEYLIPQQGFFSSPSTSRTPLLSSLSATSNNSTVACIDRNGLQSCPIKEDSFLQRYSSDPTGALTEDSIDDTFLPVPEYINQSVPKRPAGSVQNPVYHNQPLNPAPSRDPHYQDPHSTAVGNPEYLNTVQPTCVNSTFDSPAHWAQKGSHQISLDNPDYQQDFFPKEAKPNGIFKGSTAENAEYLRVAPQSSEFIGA

Compound | remaining activity at 0.3 µM (EGFR (L858R, T790M)) [%] | GI50 (SW-620) [nM] | CC50 (SW-620) [nM] | remaining activity at 0.3 µM (ERBB2) [%] | remaining activity at 0.3 µM (BLK (B-lymphoid TK)) [%] | GI50 (U251) [nM] | CC50 (U251) [nM] | remaining activity at 0.3 µM (EGFR (S752-I759del)) [%] | remaining activity at 0.3 µM (ERBB4) [%] | GI50 (MALME3-M) [nM] | CC50 (MALME3-M) [nM] | GI50 (OVCAR-4) [nM] | CC50 (OVCAR-4) [nM] | GI50 (HCC-2998) [nM] | CC50 (HCC-2998) [nM] | GI50 (HS578T) [nM] | CC50 (HS578T) [nM] | GI50 (ACHN) [nM] | CC50 (ACHN) [nM] | GI50 (OVCAR-8) [nM] | further results
O=C(/C=C/CN1CCCCC1)Nc1cc2c(Nc3ccc(F)c(Cl)c3F)ncnc2cc1OCCOC(F)F.O=C(O)/C=C\C(=O)O.O=C(O)/C=C\C(=O)O [Example I-10-MA, (E)-N-[4-(3-chloro-2,4-difluoro-anilino)-7-[2-(difluoromethoxy)ethoxy]quinazolin-6-yl]-4-(1-piperidyl)but-2-enamide di-maleic acid salt] | 2.4 | 1810 | 34700 | 0.05 | 0.3 | 2170 | 40700 | 0 | 3.2 | 1450 | 7440 | 1310 | 59900 | 1800 | 7850 | 1410 | > 100000 | < 10 | 15000 | 1350 | CC50 (OVCAR-8): > 100000 nM; remaining activity at 0.3 µM (EGFR (L861Q)): 0.75%; GI50 (SR): 816 nM; CC50 (SR): > 100000 nM; Remaining Percentage (%) after 60 min (Microsomal stability): 48.95%; half-life at 1 μM (Microsomal stability): 57.8 min; microsomal CLint at 1 μM (Microsomal stability): 24 µL/min/mg; remaining activity at 0.3 µM [1]: 0.9%; GI50 (RPMI-8226): 1640 nM; CC50 (RPMI-8226): 58900 nM
CN(C)C/C=C/C(=O)Nc1cc2c(Nc3ccc(F)c(Cl)c3F)ncnc2cc1OCCOC(F)F.O=C(O)/C=C\C(=O)O.O=C(O)/C=C\C(=O)O [Example I-9-MA, (E)-N-[4-(3-chloro-2,4-difluoro-anilino)-7-[2-(difluoromethoxy)ethoxy]quinazolin-6-yl]-4-(dimethylamino)but-2-enamide di-maleic acid salt] | 3.5 | 1520 | 52700 | 0 | 0.5 | 2170 | 29600 | 0.5 | 1.8 | 1420 | 6970 | 999 | 32400 | 1140 | 5670 | 1240 | > 100000 | < 10 | 6010 | 1090 | CC50 (OVCAR-8): 32700 nM; remaining activity at 0.3 µM (EGFR (L861Q)): 0.1%; GI50 (SR): 439 nM; CC50 (SR): 59200 nM; Remaining Percentage (%) after 60 min (Microsomal stability): 30.53%; half-life at 1 μM (Microsomal stability): 35.2 min; microsomal CLint at 1 μM (Microsomal stability): 39.4 µL/min/mg; remaining activity at 0.3 µM [1]: 0.45%; GI50 (RPMI-8226): 1290 nM; CC50 (RPMI-8226): > 100000 nM
CN(C)C/C=C/C(=O)Nc1cc2c(Nc3cccc(Cl)c3F)ncnc2cc1OCCOC(F)F.O=C(O)/C=C\C(=O)O [Example I-5-MA, (E)-N-[4-(3-chloro-2-fluoro-anilino)-7-[2-(difluoromethoxy)ethoxy]quinazolin-6-yl]-4-(dimethylamino)but-2-enamide dimaleic acid salt] |  |  |  |  |  |  |  |  |  |  |  |  |  |  |  |  |  |  |  |  | logD ([2]; pH 2.0): -2.17; logD ([2]; pH 7.4): 3.2
CN(C)C/C=C/C(=O)Nc1cc2c(Nc3ccc(F)c(Cl)c3)ncnc2cc1O[C@H]1CCOC1 [Afatinib, reference compound] |  |  |  |  |  |  |  |  |  |  |  |  |  |  |  |  |  |  |  |  | logD ([2]; pH 2.0): -2.46; logD ([2]; pH 7.4): 3.18
